Assay results taken from PubChem BioAssay (NCI).
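Briefly, cells in 96-well plates were exposed to five compound concentrations for 48 h, and endpoints were estimated by linear interpolation. The concentration for 50% growth inhibition is given as GI50. TGI marks complete inhibition of growth.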

Key:
Experiment in all cases: growth of human tumour cells (NCI), 48 h
[1] = tested on: OVCAR-5 ovarian
[2] = tested on: MOLT-4 leukemia
[3] = tested on: KM12 colon
[4] = tested on: UO-31 renal
[5] = tested on: CAKI-1 renal
[6] = tested on: MALME-3M melanoma
[7] = tested on: NCI-H23 lung
[8] = tested on: NCI-H226 lung
[9] = tested on: A498 renal
[10] = tested on: T-47D breast

Row | SMILES | GI50 [1] | TGI [1] | GI50 [2] | TGI [2] | GI50 [3] | TGI [3] | GI50 [4] | TGI [4] | GI50 [5] | TGI [5] | GI50 [6] | TGI [6] | GI50 [7] | TGI [7] | GI50 [8] | TGI [8] | GI50 [9] | TGI [9] | TGI [10]
1 | O=C1/C(=C/c2ccc(Cl)cc2Cl)N=C(c2ccccc2)N1Cc1ccco1 | 34.5 µM | > 100 µM | 25.8 µM | > 100 µM | 33.7 µM | > 100 µM | 23.9 µM | > 100 µM | 30.2 µM | 50.6 µM | 21.2 µM | 52.8 µM | 26.2 µM | 81.6 µM | 23.9 µM | 67.6 µM | 22.3 µM | 61 µM | –
2 | COC(=O)C(=O)C(C(=O)C=C(C)C)C(=O)C(=O)Nc1cc(C(F)(F)F)ccc1Cl (stereo unspecified) | – | > 100 µM | – | > 100 µM | – | > 100 µM | – | > 100 µM | – | > 100 µM | – | > 100 µM | – | > 100 µM | – | > 100 µM | – | > 100 µM | –
3 | CCOc1ccc2c(c1)[n+]([O-])c(S(=O)(=O)c1ccc(C)cc1)c(N)[n+]2[O-] | – | > 100 µM | – | > 100 µM | – | > 100 µM | – | > 100 µM | – | > 100 µM | – | > 100 µM | – | > 100 µM | – | > 100 µM | – | > 100 µM | –
4 | CCCCCCCCCC[C@@H](O)[C@@H]1CC[C@H]([C@H]2CC[C@@H]([C@@H](O)CCCCCCCCCC[C@H]3CC(CC(C)=O)C(=O)O3)O2)O1 (stereo partly specified) | – | 74.3 µM | – | 18.8 µM | – | – | – | 16.5 µM | – | 75.8 µM | – | 19.1 µM | – | 16.4 µM | – | 20.2 µM | – | 71.9 µM | –
5 | COC(=O)C[C@H]1CCC2(OCCO2)[C@]1(C)C(=O)OC | – | > 100 µM | – | > 100 µM | – | > 100 µM | – | > 100 µM | – | > 100 µM | – | > 100 µM | – | > 100 µM | – | – | – | > 100 µM | –
6 | COc1cnc2cc(C(=O)O)c3c([N+](=O)[O-])cccc3c2c1 | – | > 100 µM | – | > 100 µM | – | > 100 µM | – | > 100 µM | – | > 100 µM | – | > 100 µM | – | > 100 µM | – | > 100 µM | – | – | > 100 µM
7 | Cc1ccc(C)c(NC(=O)CC/C(=N\NC(=O)C(=O)NN)C(C)C(=O)c2ccc(O)cc2)c1 (stereo unspecified) | – | > 100 µM | – | > 100 µM | – | > 100 µM | – | > 100 µM | – | > 100 µM | – | > 100 µM | – | > 100 µM | – | > 100 µM | – | > 100 µM | –
8 | O=C(N/N=C/c1ccccc1O)c1cccc([N+](=O)[O-])c1 | – | > 100 µM | – | > 100 µM | – | > 100 µM | – | 56.5 µM | – | – | – | > 100 µM | – | > 95.5 µM | – | – | – | > 100 µM | –
9 | CC12CC[C@@H](C(C)(C)O)C1[C@@H](O)CC1(C)C2CCC2[C@@]3(C)CC[C@H](O)C(C)(C)C3C(O)C[C@]21C (stereo partly specified) | – | 31.2 µM | – | – | – | 38.1 µM | – | 40 µM | – | – | – | 32.1 µM | – | 39.2 µM | – | – | – | 32.3 µM | –
10 | O=C(c1ccco1)c1nc2ccc(C(F)(F)F)cc2[n+]([O-])c1C(F)(F)F | > 100 µM | > 100 µM | > 100 µM | > 100 µM | 67.7 µM | > 100 µM | > 100 µM | > 100 µM | 31 µM | > 100 µM | 27.9 µM | 77.2 µM | 46.7 µM | > 100 µM | 53.9 µM | > 100 µM | 33.7 µM | > 100 µM | –
11 | COc1ccc2cc1Oc1ccc(cc1)CC1c3cc(c(OC)cc3CCN1C)Oc1c3c(cc4c1C(C2)N(C)CC4)OCO3 (stereo unspecified) | – | 32.4 µM | – | 21.5 µM | – | 27.2 µM | – | – | – | – | – | – | – | 31.9 µM | – | 7.45 µM | – | – | –
